Measured values from patent US11944593B2, “Myrcene-containing complex mixtures targeting TRPV1” (GBS GLOBAL BIOPHARMA, INC., priority 2017, dated 2024).
Each block holds one compound with its values, some of them ahead of it.

Legend:
Assay type in all cases: cell-based
TRPV1 [1] = biological target: T1, TRPV1 (Rattus norvegicus, UniProt O35433); assay: TRPV1-mediated calcium flux (Fluo-4) in HEK cells inducibly expressing TRPV1; settings: for AUC of calcium response curve, first application: AUC (between 20-300 nM), compound first introduced to TRPV1-expressing cells; for calcium flux (Fluo-4 RFU) in TRPV1-expressing HEK cells: stimulus applied to cell culture medium, mixtures at Table 1 concentrations; for suppression of later calcium response by pre-incubation (desensitization): 24 hours pre-incubation with the same compound; for concentration inducing calcium influx to a similar degree (by AUC): AUC between 20 and 300 nM of calcium response curves; for AUC of calcium response after 24 hours incubation with the same compound: cells incubated with compound for 24 hours, then re-stimulated
T1 construct: FLAG; expressed in transfected cells; host or cells: TRex HEK293 (HEK293 stably carrying pcDNA6TR), induced with tetracycline
T1 sequence (O35433 whole entry): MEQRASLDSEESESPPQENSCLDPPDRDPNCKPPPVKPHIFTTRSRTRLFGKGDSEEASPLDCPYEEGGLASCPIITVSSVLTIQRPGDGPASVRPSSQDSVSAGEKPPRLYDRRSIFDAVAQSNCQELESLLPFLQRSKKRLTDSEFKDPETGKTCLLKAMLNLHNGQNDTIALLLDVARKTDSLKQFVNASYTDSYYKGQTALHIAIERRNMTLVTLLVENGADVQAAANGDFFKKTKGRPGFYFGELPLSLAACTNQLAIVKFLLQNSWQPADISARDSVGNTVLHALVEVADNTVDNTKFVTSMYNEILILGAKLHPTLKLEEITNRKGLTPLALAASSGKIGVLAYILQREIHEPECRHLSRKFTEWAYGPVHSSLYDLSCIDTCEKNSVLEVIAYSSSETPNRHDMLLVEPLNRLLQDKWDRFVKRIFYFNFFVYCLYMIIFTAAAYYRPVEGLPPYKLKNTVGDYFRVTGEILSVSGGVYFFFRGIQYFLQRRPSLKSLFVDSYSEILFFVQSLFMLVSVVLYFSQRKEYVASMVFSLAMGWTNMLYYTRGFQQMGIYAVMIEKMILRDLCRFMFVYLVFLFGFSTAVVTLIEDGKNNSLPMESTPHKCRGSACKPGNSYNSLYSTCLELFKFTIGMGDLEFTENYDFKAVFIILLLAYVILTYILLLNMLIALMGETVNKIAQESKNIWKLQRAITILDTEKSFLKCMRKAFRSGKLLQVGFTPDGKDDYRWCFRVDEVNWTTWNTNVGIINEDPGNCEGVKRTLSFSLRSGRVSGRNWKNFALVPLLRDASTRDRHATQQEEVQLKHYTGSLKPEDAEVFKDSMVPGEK
Protocol: The HEK293 cell line was stably transfected with the pcDNA6TR (Invitrogen, CA) plasmid (encoding the tetracycline-sensitive TREx repressor protein), and was maintained in DMEM+10% fetal bovine serum (inactivated at 55° C. for 1 h)+2 mM glutamine in humidified 5% CO2 atmosphere at 37° C. Selection pressure on the TRex 293 cells was maintained by continuous culture in 10 μg/ml Blasticidin (Sigma, St Louis, Mo.).
For production of TRex HEK293 cells with inducible expression of TRPV1, parental cells were electroporated with the rat TRPV1 cDNA in the pcDNA4TO vector and clonal cell lines were selected by limiting dilution in the presence of 400 μg/ml zeocin (Invitrogen, CA). TRPV1 expression was induced using 1 μg/ml tetracycline for 16 h at 37° C.
(§1) Calcium responses mediated by TRPV1 were tested by calcium assay in the cell culture system. Cells were washed and incubated with 0.2 μM fluo-4 acetoxymethyl ester (“Fluo-4”) for 30 minutes at 37° C. in a standard modified Ringer's solution of the following composition (in mM): NaCl 145, KCl 2.8, CsCl 10, CaCl2 10, MgCl2 2, glucose 10, Hepes.NaOH 10, pH 7.4, 330 mOsm. Cells were transferred to 96-well plates at 50,000 cells/well and stimulated as indicated. Calcium signals were acquired using a Flexstation 3 (Molecular Devices, Sunnydale, USA). Data was analyzed using SoftMax® Pro 5 (Molecular Devices). Where indicated, nominally calcium-free external conditions were achieved by the preparation of 0 mM CaCl2 Ringer solution containing 1 mM EGTA. Where indicated, capsaicin (10 μM) and ionomycin (500 nM) were used as positive controls to induce calcium responses. Capsazepine (10 μM) was used where indicated to specifically antagonize TRPV1-mediated calcium responses. Where indicated, baseline traces (no stimulation, NS) were subtracted. Where indicated, vehicle alone traces were subtracted. Where indicated, vehicle comprising various diluents matched to corresponding mixtures was used as a negative control.

HEK wild type cells = assay: Calcium flux (Fluo-4) in wild-type HEK cells without TRPV1 construct; settings: same stimulus conditions as TRPV1-expressing cells
Protocol: as §1

TRPV1 [2] = biological target: T1, TRPV1; assay: Whole-cell patch clamp in single HEK293 cells overexpressing TRPV1; settings: for outward current relative to inward current: then 1 μM capsaicin; for inward current: average of 6 independent experiments
Protocol: HEK293 cells were kept in sodium-based extracellular Ringer's solution containing 140 mM NaCl, 1 mM CaCl2, 2 mM MgCl2, 2.8 mM KCl, 11 mM glucose, and 10 mM HEPES-NaOH, pH 7.2 and osmolarity 300 mOsmol. The cells' cytosol was perfused with intracellular patch pipette solution containing 140 mM Cs-glutamate, 8 mM NaCl, 1 mM MgCl2, 3 mM MgATP, and 10 mM HEPES-CsOH. The standard internal Ca^2+ concentration was buffered to 180 nM with 4 mM Ca and 10 mM BAPTA. The level of free unbuffered Ca was adjusted using the calculator provided with WebMaxC (http://www.stanford.edu/˜cpatton/webmaxcS.htm). The pH of the final solution was adjusted to pH 7.2 and osmolarity measured at 300 mOsmol.
1 μM capsaicin was used as a positive control for TRPV1 activation. Rapid extracellular solution application and exchange was performed with the SmartSquirt delivery system (Auto-Mate Scientific, San Francisco). The system includes a ValveLink TTL interface between the electronic valves and the EPC-9 amplifier (HEKA, Lambrecht, Germany). This configuration allows for programmable solution changes via the PatchMaster software (HEKA, Lambrecht, Germany).
Patch-clamp experiments were performed in the whole-cell configuration at 21-25° C. Patch pipettes had resistances of 2-3 MΩ. Data was acquired with PatchMaster software controlling an EPC-9 amplifier. Voltage ramps of 50 ms spanning the voltage range from −100 to 100 mV were delivered from a holding potential of 0 mV at a rate of 0.5 Hz over a period of […]. Voltages were corrected for a liquid junction potential of 10 mV. Currents were filtered at 2.9 kHz and digitized at 100 μs is intervals. Capacitive currents were determined and corrected before each voltage ramp. The development of currents for a given potential was extracted from individual ramp current records by measuring the current amplitudes at voltages of −80 mV and +80 mV. Data were analyzed with FitMaster (HEKA, Lambrecht, Germany), and IgorPro (WaveMetrics, Lake Oswego, Oreg., USA). Where applicable, statistical errors of averaged data are given as mean±s.e.m.

[3] = pre-incubation with 500 nM ionomycin

Structure (SMILES): C[C@H](CCC(=O)O)C[C@H](C)C[C@H](C)C(=O)/C=C(\O)[C@H](C)C[C@H](C)C/C=C/[C@@H](C)[C@@H](O)[C@@H](C)[C@@H](O)C[C@@H]1CC[C@@](C)([C@H]2CC[C@@](C)([C@@H](C)O)O2)O1 [ionomycin, reference compound]
AUC of calcium response curve, first application (TRPV1 [1]): 128
reduction of later calcium influx in response to capsaicin (TRPV1 [1]; [3]): 38%
reduction of later calcium influx in response to myrcene (TRPV1 [1]; [3]): 27%

Structure (SMILES): CCCCCc1cc(O)c2c(c1)OC(C)(CCC=C(C)C)C=C2 (centres unmarked) [cannabichromene]
calcium flux in wild-type HEK cells without TRPV1 (HEK wild type cells): only minimal or absent
calcium flux (Fluo-4 RFU) in TRPV1-expressing HEK cells (TRPV1 [1]): calcium flux was detected

Structure (SMILES): C=C(C)[C@@H]1CCC(C)=C[C@H]1c1c(O)cc(CCC)cc1O [cannabidivarin]
calcium flux in wild-type HEK cells without TRPV1 (HEK wild type cells): only minimal or absent
calcium flux (Fluo-4 RFU) in TRPV1-expressing HEK cells (TRPV1 [1]): calcium flux was detected

calcium flux (Fluo-4 RFU) in TRPV1-expressing HEK cells (TRPV1 [1]): significant calcium flux was detected
calcium flux (Fluo-4 RFU) in TRPV1-expressing HEK cells (TRPV1 [1]; listed as Nerolidol): more modest agonist activity
Structure (SMILES): C=CC(C)(O)CCC=C(C)CCC=C(C)C (centres unmarked) [nerolidol]

AUC of calcium response curve, first application (TRPV1 [1]): 66
concentration inducing calcium influx to a similar degree (by AUC) (TRPV1 [1]): about 200 nM
AUC of calcium response after 24 hours incubation with the same compound (TRPV1 [1]): 32
calcium-mediated fluorescence under calcium-free medium conditions, high concentration (TRPV1 [1]; myrcene 3.5 μg/ml, calcium-free medium): induced such increase
calcium responses to different concentrations of myrcene (TRPV1 [1]; myrcene 3.5 μm/ml, 1.75 μg/ml, 0.875 μm/ml and 0.43 μm/ml): dose-dependent
calcium flux (Fluo-4 RFU) in TRPV1-expressing HEK cells (TRPV1 [1]): significant calcium flux was detected
inward current (TRPV1 [2]; 5 μM myrcene, 1 mM Ca): approximately 0.5 nA
current induced (TRPV1 [2]; 5 μM, 10 μM and 150 μM myrcene): 0.5-2.2 nA
current response in individual cells to increasing myrcene (TRPV1 [2]; 5 μM, 10 μM, 150 μM myrcene): dose-dependent response
TRPV1 channel permeation state activated (TRPV1 [2]; IV relationship, State 1 vs State 2 (dilated)): primarily in State 1
Structure (SMILES): C=CC(=C)CCC=C(C)C [myrcene, 7-methyl-3-methylideneocta-1,6-diene]
calcium flux in wild-type HEK cells without TRPV1 (HEK wild type cells): much smaller
suppression of later calcium response by pre-incubation (desensitization) (TRPV1 [1]): 52%
calcium-mediated fluorescence under calcium-free medium conditions, low concentrations (TRPV1 [1]; myrcene 0.43, 0.875 and 1.75 μg/ml, calcium-free medium): did not cause increase of calcium-mediated fluorescence
outward current relative to inward current (TRPV1 [2]; 5 μM myrcene): at a lower amplitude than the inward current

Structure (SMILES): C=C(C)[C@@H]1CCC(C)=C[C@H]1c1c(O)cc(CCCCC)cc1O [cannabidiol]
calcium flux in wild-type HEK cells without TRPV1 (HEK wild type cells): only minimal or absent
calcium flux (Fluo-4 RFU) in TRPV1-expressing HEK cells (TRPV1 [1]): calcium flux was detected

effect on calcium flux induced by myrcene (TRPV1 [1]; 10 μM capsazepine added to cells activated with 3.5 μm/ml myrcene): diminished
Structure (SMILES): Oc1cc2c(cc1O)CN(C(=S)NCCc1ccc(Cl)cc1)CCC2 [capsazepine, reference compound]

Structure (SMILES): CCCCCc1cc(O)c(C/C=C(\C)CCC=C(C)C)c(O)c1C(=O)O [cannabigerolic acid]
calcium flux in wild-type HEK cells without TRPV1 (HEK wild type cells): only minimal or absent
calcium flux (Fluo-4 RFU) in TRPV1-expressing HEK cells (TRPV1 [1]): calcium flux was detected

AUC of calcium response curve, first application (TRPV1 [1]): 124
concentration inducing calcium influx to a similar degree (by AUC) (TRPV1 [1]): about 30 nM
AUC of calcium response after 24 hours incubation with the same compound (TRPV1 [1]): 38
calcium flux (Fluo-4 RFU) in TRPV1-expressing HEK cells (TRPV1 [1]): capsaicin-specific calcium fluxes
current induced (TRPV1 [2]; 1 μM capsaicin (not shown)): 4-10 nA
inward current (TRPV1 [2]; 1 μM capsaicin applied after myrcene): approximately 9 nA
Structure (SMILES): COc1cc(CNC(=O)CCCC/C=C/C(C)C)ccc1O [capsaicin, reference compound]
suppression of later calcium response by pre-incubation (desensitization) (TRPV1 [1]): 69%
outward current relative to inward current (TRPV1 [2]; 5 μM myrcene): at a lower amplitude than the inward current

Structure (SMILES): C=C(C)[C@@H]1CCC(C)=C[C@H]1c1c(O)cc(CCCCC)c(C(=O)O)c1O [cannabidiolic acid]
calcium flux in wild-type HEK cells without TRPV1 (HEK wild type cells): only minimal or absent
calcium flux (Fluo-4 RFU) in TRPV1-expressing HEK cells (TRPV1 [1]): calcium flux was detected
